Source: PubChem BioAssay AID1159564 (GlaxoSmithKline (GSK), 2015)
pIC50: −log10 of the molar value. Calls of active or inactive are those of the source. The rule behind the calls is not given here.

Tested on: L. donovani-infected THP-1 macrophages, intracellular amastigote imaging
Assay: intracellular L. donovani amastigote inhibition, imaging, THP-1 host macrophages, host toxicity (AID 1159564)
[1] = measured here: THP-1 host cell toxicity
[2] = measured here: amastigotes per macrophage

SMILES	pIC50	pIC50 [1]	pIC50 [2]	IC50
OC[C@@H](Nc1nccc(-c2c(-c3ccc(F)cc3)ncn2C2CCNCC2)n1)c1ccccc1	4.49	4.49	4.49	
O=C(Nc1nc(-c2ccccn2)cs1)N1C[C@H]2C[C@@]2(c2ccccc2)C1	6.30	5.10	6.40	
O=C(CCCNC(=O)c1ccc(Cl)cc1)Nc1nc(-c2ccccn2)cs1	5.30	< 4.30	5.49	
O=C(Nc1ccc(-c2nc3ccccc3c(=O)[nH]2)cc1)c1cccs1		< 4.30	< 4.30	> 50 µM (inactive)
CC1(Oc2cncc(Cl)c2)CCN(Cc2cc3ccccc3[nH]2)C1 (stereo not drawn)	4.70	4.49	4.49	
Oc1c(-c2n[nH]c(Cc3ccc(Cl)cc3)n2)ncc2cccnc12	5.89	4.70	6.00	
OCC1CCCCN1c1cc(-c2ccccn2)nc(Nc2ccccc2)n1 (stereo not drawn)	5.89	4.70	6.00	
O=C(c1cccc(Nc2ncc(-c3ccc4c(c3)OCO4)cn2)c1)N1CCOCC1	5.40	4.20	5.80	
O=C(Nc1ccc(S(=O)(=O)N2CCCC2)cc1)c1ccc([N+](=O)[O-])s1	5.80	< 4.30	6.00	
O=C1CCCCCC1(Cc1cnc[nH]1)c1ccc(Cl)cc1Cl (stereo not drawn)		< 4.30	5.20	> 50 µM (inactive)
Cc1cc(C)n(-c2nc(NC(C)(C)C)nc(N3CCOCC3)n2)n1	5.10	< 4.30	5.40	
O=C(NCCc1cccnc1)c1csc(-c2ccccc2)n1		< 4.30	< 4.30	> 50 µM (inactive)
O=C(c1cccc(Cl)c1Cl)N1CCn2c1nc(-c1ccncc1)cc2=O		< 4.30	4.49	> 50 µM (inactive)
Nc1ncnc2c1ncn2[C@@H]1O[C@H](CO)C[C@H]1O		< 4.30	< 4.30	> 50 µM (inactive)
N#Cc1cc([N+](=O)[O-])ccc1NC1CCCCCC1		< 4.30	< 4.30	> 50 µM (inactive)
Cn1c(CC(=O)NNC(=O)c2ccc3ccccc3n2)nc2ccccc21	5.89	< 4.30	6.10	
CC1=C(C(=O)Nc2ccc(Cl)cc2)C(c2ccncc2)n2ncc(C(=O)Nc3ccccc3)c2N1 (stereo not drawn)		4.89	< 4.30	> 50 µM (inactive)
Clc1ccc(C(CC2CCCCO2)Cn2cncn2)c(Cl)c1 (stereo not drawn)		< 4.30	< 4.30	> 50 µM (inactive)
CNc1nc(C)nc(N2CCc3cc(C(=O)NCc4ccc(-c5ccn[nH]5)cc4Cl)ccc32)n1	6.49	< 4.30	6.40	
O=C(NCCCn1cnc2ccccc21)c1ccc(NC(=O)c2ccco2)cc1		< 4.30	4.89	> 50 µM (inactive)
CN1CCC(N(C)c2nccc(N3CCN(C(=O)c4cccc(-c5cccnc5)c4)CC3)n2)CC1	5.89	5.10	5.89	
OCCCNc1nc(Nc2ccncc2)nc2ccccc12		< 4.30	< 4.30	> 50 µM (inactive)
O=C(C1CCCCC1)N1CCN(c2nnc(-c3ccccc3)c3ccccc23)CC1		4.30	4.70	> 50 µM (inactive)

SMILES	pIC50	pIC50 [1]	pIC50 [2]	IC50
COC(=O)c1ccc(-c2cnc3ccc(NCc4ccccn4)nn23)cc1		4.89	4.80	> 50 µM (inactive)
Cc1nn(-c2ccccc2)nc1CNC(=O)CN(Cc1ccccn1)Cc1ccccn1	5.30	4.20	5.30	
CC(C)(C)c1cc(NC2CC2)nc(-c2ccccn2)n1	5.60	4.60	5.80	
CN(Cc1ccccc1)Cc1nnnn1C1CCN(Cc2ccc(-n3ccnc3)cc2)CC1		4.49	< 4.30	> 50 µM (inactive)
COc1cccc(C(=O)[C@H]2C[C@@H]2CN(Cc2ccccn2)Cc2ccccn2)c1	5.70	< 4.30	5.80	
CCOc1ccc(NC(=O)c2ccc(NC(=O)NC3CCCCC3)cc2)cc1	5.10	5.40	5.20	
Clc1ccc(CN2CCN(C3=NCCN3)CC2)cc1Cl		< 4.30	< 4.30	> 50 µM (inactive)
c1ccc(Nc2nc(-c3ccccn3)cc(N3CCOCC3)n2)cc1	5.70	< 4.30	5.89	
O=[N+]([O-])c1ccc(-c2nnn(-c3cccnc3)n2)o1		4.89	4.30	> 50 µM (inactive)
N#Cc1cc(N2CCCC2=O)ccc1Sc1ccccc1CO		< 4.30	< 4.30	> 50 µM (inactive)
OC1CCC(Nc2nccc(-c3sc(C4CCOCC4)nc3-c3ccc(F)c(F)c3)n2)CC1 (stereo not drawn)	5.30	4.70	5.60	
COc1ccc(C)cc1-c1csc(NC(=O)C(C)n2ccnc2)n1 (stereo not drawn)		< 4.30	< 4.30	> 50 µM (inactive)
Cn1c(CN2CCN(c3ncc(C(F)(F)F)cc3Cl)CC2)nc2ccncc21		5.20		> 50 µM (inactive)
O=C(Nc1nc(-c2ccc(S(=O)(=O)N3CCOCC3)cc2)cs1)c1ccc([N+](=O)[O-])cc1		5.40	5.60	> 50 µM (inactive)
C[C@@H](Oc1cc(-n2cnc3ccc(C(O)CO)cc32)sc1C(N)=O)c1ccccc1C(F)(F)F (stereo partly drawn)	4.70	4.80	4.89	
CC(C)Oc1cccc(N2CCC(C(=O)N3CCCN(C(C)C)CC3)CC2)c1		< 4.30	< 4.30	> 50 µM (inactive)
Cn1nc([N+](=O)[O-])nc1N1CCCCC1		< 4.30	< 4.30	> 50 µM (inactive)
Cc1nc(C(=O)Nc2ccc3c(c2)OCO3)nn1-c1ccc(Cl)cc1	5.70	4.89	5.80	
Cc1nn(-c2nc3ccccc3[nH]2)c2c1C(c1ccc(O)cc1)CC(=O)N2 (stereo not drawn)	6.00	5.20	6.30	
CN(C)Cc1ccc(N2CCC(NS(=O)(=O)c3ccc(Cl)cc3)CC2)cc1		4.60	4.60	> 50 µM (inactive)
COc1ccc(NC(=O)c2ccc(NC(=O)CN(c3ccccc3C)S(C)(=O)=O)cc2)cc1		< 4.30	5.10	> 50 µM (inactive)
Cc1ccc2c(c1)SC(C(=O)Nc1n[nH]c(-c3ccccn3)n1)C2 (stereo not drawn)	5.40	4.60	5.60	
O=[N+]([O-])c1ccc(-c2nnn(-c3ccc(Cl)cc3)n2)o1		< 4.30	< 4.30	> 50 µM (inactive)

SMILES	pIC50	pIC50 [1]	pIC50 [2]	IC50
C[C@@H](Oc1cc(-n2cnc3ccc(O[C@H]4CCNC4)cc32)sc1C(N)=O)c1ccccc1Cl	5.10	5.20	5.30	
O=C(CC1(O)C(=O)N(Cc2ccccc2)c2ccc(Br)cc21)c1cccnc1 (stereo not drawn)		4.40	4.49	> 50 µM (inactive)
CCC(CC)C(=O)Nc1ccc(-c2nnc(-c3ccc(OC)cc3)o2)cc1		< 4.30	< 4.30	> 50 µM (inactive)
NS(=O)(=O)c1ccc(Nc2ncc3cccc(OC4CCNCC4)c3n2)cc1	4.70	6.00	4.80	
CC(C)Oc1ccc(C(=O)Nc2ccc(N3CCOCC3)c(Cl)c2)cc1		< 4.30	5.49	> 50 µM (inactive)
O=C(Cc1ccc2c(c1)CCC2)Nc1n[nH]c(-c2ccccn2)n1	5.20	< 4.30	5.20	
O=C(NCC1CCCCN1C(=O)c1cccc2ccccc12)c1ccccc1 (stereo not drawn)		< 4.30	< 4.30	> 50 µM (inactive)
Cc1nc2c(-c3nc(-c4ccc(N)cc4)n[nH]3)cccn2c1C	5.70	4.89	5.80	
CC(Cn1ccnc1)NC(=O)C=Cc1ccc(Cl)cc1 (stereo not drawn)		< 4.30	< 4.30	> 50 µM (inactive)
CC(C)C[C@H](NC(=O)c1csc(-c2cccs2)n1)C(=O)NC1(C#N)CC1		< 4.30	< 4.30	> 50 µM (inactive)
COc1ccc(Nc2nc(-c3ccccn3)cs2)c(OC)c1	5.60	< 4.30	5.70	
O=C(CN1CCN(c2ccccn2)CC1)Nc1cc(S(=O)(=O)N2CCCCCC2)ccc1Cl	5.20	4.30	5.89	
N#Cc1cccc(CNc2ccc(-c3cnn(CC4CC4)c(=O)c3C#N)cc2)c1	5.89	5.20	6.60	
O=C(Cn1cnc([N+](=O)[O-])n1)Nc1ccc(Cl)cc1C(=O)c1ccccc1		< 4.30	< 4.30	> 50 µM (inactive)
CC(C)(C)C(O)(CCc1ccc(Cl)cc1)Cn1cncn1 (stereo not drawn)		< 4.30	< 4.30	> 50 µM (inactive)
NCc1ccc2c(Cl)cc(Cl)c(O)c2n1	5.70	4.70	5.70	
CCOc1ccc2nc(NC(=O)c3ccc([N+](=O)[O-])s3)sc2c1	5.20	< 4.30	5.30	
Nc1nc(-c2ccccn2)nc(-n2nc(-c3cccc(C(F)(F)F)c3)cc2N)n1	6.10	5.30	6.30	
CC(C(=O)Nc1ccccc1F)N(C)CC(=O)Nc1cccc2ccccc12 (stereo not drawn)		< 4.30	< 4.30	> 50 µM (inactive)
NC(=O)c1cc(NC(=O)c2ccccc2COc2ccccc2)ccc1Cl	5.49	4.80	5.80	
O=C(N[C@H](CO)c1ccccc1)c1ccc(-c2c[nH]c3nccc(C(F)(F)F)c23)s1	4.60	4.89	4.80	
O=C(CN1CCC2(O)CCCCC2C1c1ccc2c(c1)OCO2)Nc1ccc(Cl)cc1Cl (stereo not drawn)	5.49	< 4.30	5.89	
